Data on 1 compound can be found in ChEMBL document CHEMBL1150085, “Gummiferol, a cytotoxic polyacetylene from the leaves of Adenia gummifera” (1995).

The test system of test [1] is A-431. As to the kind of experiment: Cytotoxicity against human A431 cells. Type of test: functional. As to conditions: read-out: ED50 (the source's name).
Test [2] relates to LNCaP. As to the kind of experiment: Cytotoxicity against human LNCAP cells. Type of test: functional. Conditions: read-out: ED50 (the source's name).
A short description of test [3]: Cytotoxicity against human BC1 cells. Type of test: functional. Conditions: read-out: ED50 (the source's name).
The nature of test [4]: Cytotoxicity against human U373 cells. Type of test: functional, U-373MG ATCC. As to conditions: U373 MG, read-out: ED50 (the source's name).
Test [5] has as its system P388. As to the kind of experiment: Cytotoxicity against mouse P388 cells. Type of test: functional. As to conditions: read-out: ED50 (the source's name).
Test [6] concerns KB. As to the kind of experiment: Cytotoxicity against human vinblastine-positive KB cells. In kind it is functional. Conditions: read-out: ED50 (the source's name).
The subject of test [7] is SK-MEL-2. As to the kind of experiment: Cytotoxicity against human SK-MEL-2 cells. In kind it is functional. As to conditions: read-out: ED50 (the source's name).
Test [8] concerns Lu1. As to the kind of experiment: Cytotoxicity against human Lu1 cells. In kind it is functional. As to conditions: read-out: ED50 (the source's name).
The test system of test [9] is HT. As to the kind of experiment: Cytotoxicity against human HT cells. In kind it is functional. Conditions: read-out: ED50 (the source's name).
Test [10] deals with Col2. As to the kind of experiment: Cytotoxicity against human Col2 cells. In kind it is functional. Conditions: read-out: ED50 (the source's name).
The subject of test [11] is KB. As to the kind of experiment: Cytotoxicity against human vinblastine-negative KB cells. Type of test: functional. Conditions: read-out: ED50 (the source's name).
The subject of test [12] is KB. As to the kind of experiment: Cytotoxicity against human KB cells. Type of test: functional. As to conditions: read-out: ED50 (the source's name).
For test [13], the system named is ZR-75-1. As to the kind of experiment: Cytotoxicity against human ZR-75-1 cells. Conditions: read-out: ED50 (the source's name). In kind it is functional.

Each structure is given as a SMILES string. ≈ marks a conversion by molar mass, not a printed value.

`CC(=O)OC/C=C/C1OC1C1OC1C#CC#CC#CCO` (stereo not drawn) [GUMMIFEROL]: the EC50 came out at 0.5 µg/mL (≈ 1.75 µM) in test [1]; 0.2 µg/mL (≈ 0.699 µM) in test [2]; 0.2 µg/mL (≈ 0.699 µM) in test [3]; 0.05 µg/mL (≈ 0.175 µM) in test [4]; 0.03 µg/mL (≈ 0.105 µM) in test [5]; 0.3 µg/mL (≈ 1.05 µM) in test [6]. The EC50 in test [7] worked out at 1.3 µg/mL (≈ 4.54 µM); in test [8], 0.9 µg/mL (≈ 3.14 µM); in [9] it was 0.1 µg/mL (≈ 0.349 µM); in test [10], 0.6 µg/mL (≈ 2.1 µM); in test [11] it was 0.4 µg/mL (≈ 1.4 µM); in [12] it was 0.3 µg/mL (≈ 1.05 µM). Besides, the EC50 in test [13] is 0.2 µg/mL (≈ 0.699 µM).
